# Experimental data as given in patent US20260217767A1, “NOVEL A4B7 THIOETHER PEPTIDE DIMER ANTAGONISTS” (Protagonist Therapeutics, Inc., priority 2014, published 2026).
# Values joined by “and” are separate entries in the source; they are usually repeats but may differ in a detail not shown here. Equal entries are not always repeated. *1 amine or outer side, *2 acyl side, *3 side chain or, on linkers, in order; H or OH if unused. Where a SMILES comes first, the peptide text is derived from it. Bridges are numbered along the chain shown (N, C = ends). Roman numbers before positions name the chains, in order. [ ]: non-standard residue; d: D form. 1Nal = N[C@@H](Cc1cccc2ccccc12)C(=O)O; Diglycolyl = O=C(COCC(=O)[*:2])[*:1]; NMeR = CN[C@@H](CCCNC(=N)N)C(=O)O; Tic = O=C(O)[C@@H]1Cc2ccccc2CN1; X1 = O=C(c1ccccc1C[*:2])[*:1]; Pen = CC(C)(S)[C@H](N)C(=O)O
# Assays:
# Jurkat E6.1 cells = Jurkat E6.1 cells (Homo sapiens, UniProt P05556+P13612); assay: α4β1-VCAM Cell Adhesion Assay; type: cell-based; settings: thioether peptide dimers, Table 7; read-out: Cell Adhesion A4B1
# How it was run: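 Jurkat E6.1 cells (200,000 per well, in DMEM with 0.1% BSA and 1 mM MnCl2) allowed to adhere to rh VCAM-1 Fc-coated wells with serially diluted peptide for 30-45 min at 37° C. After washing, bound cells quantified by MTT absorbance at 570 nm, cell-free background subtracted, for dose response.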
# [1] = Simulated Intestinal Fluid (SIF) Stability Assay; type: in vitro ADME; settings: 37° C., dimers, Table 7; for half-life / SIF (Porcine) (half-life, min): porcine pancreatin; for half-life at 22 μM: simulated intestinal fluid (SIF) with 1% porcine pancreatin, pH 6.5, porcine pancreatin
# How it was run: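 Peptide at 22 μM final was incubated at 37° C in blank FaSSIF pH 6.5 with 1% porcine pancreatin. Timed samples were quenched in acetonitrile/methanol/formic acid with internal standard and analysed by LC-MS/MS. Half-lives came from first-order exponential fits of percent remaining.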
# α4β1 = target: T1, α4β1 (Homo sapiens, UniProt P05556+P13612); assay: α4β1-VCAM Competition ELISA; type: binding; settings: thioether peptide dimers, Table 7; read-out: ELISA A4B1
# T1 construct: purchased R&D Systems 5668-A4
# How it was run: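 rh VCAM-1-Fc coated plates; α4β1 (final 60 nM) and peptide (final 100 μM) incubated 2 h at 37° C. in 50 mM Tris-HCl pH 7.6, 100 mM NaCl, 1 mM MnCl2 or MgCl2, 0.05% Tween-20. Bound integrin detected with anti-CD49d 9F10 and HRP anti-mouse IgG, TMB read at 450 nm.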
# Sequence of Jurkat E6.1 cells (P13612 34-1032): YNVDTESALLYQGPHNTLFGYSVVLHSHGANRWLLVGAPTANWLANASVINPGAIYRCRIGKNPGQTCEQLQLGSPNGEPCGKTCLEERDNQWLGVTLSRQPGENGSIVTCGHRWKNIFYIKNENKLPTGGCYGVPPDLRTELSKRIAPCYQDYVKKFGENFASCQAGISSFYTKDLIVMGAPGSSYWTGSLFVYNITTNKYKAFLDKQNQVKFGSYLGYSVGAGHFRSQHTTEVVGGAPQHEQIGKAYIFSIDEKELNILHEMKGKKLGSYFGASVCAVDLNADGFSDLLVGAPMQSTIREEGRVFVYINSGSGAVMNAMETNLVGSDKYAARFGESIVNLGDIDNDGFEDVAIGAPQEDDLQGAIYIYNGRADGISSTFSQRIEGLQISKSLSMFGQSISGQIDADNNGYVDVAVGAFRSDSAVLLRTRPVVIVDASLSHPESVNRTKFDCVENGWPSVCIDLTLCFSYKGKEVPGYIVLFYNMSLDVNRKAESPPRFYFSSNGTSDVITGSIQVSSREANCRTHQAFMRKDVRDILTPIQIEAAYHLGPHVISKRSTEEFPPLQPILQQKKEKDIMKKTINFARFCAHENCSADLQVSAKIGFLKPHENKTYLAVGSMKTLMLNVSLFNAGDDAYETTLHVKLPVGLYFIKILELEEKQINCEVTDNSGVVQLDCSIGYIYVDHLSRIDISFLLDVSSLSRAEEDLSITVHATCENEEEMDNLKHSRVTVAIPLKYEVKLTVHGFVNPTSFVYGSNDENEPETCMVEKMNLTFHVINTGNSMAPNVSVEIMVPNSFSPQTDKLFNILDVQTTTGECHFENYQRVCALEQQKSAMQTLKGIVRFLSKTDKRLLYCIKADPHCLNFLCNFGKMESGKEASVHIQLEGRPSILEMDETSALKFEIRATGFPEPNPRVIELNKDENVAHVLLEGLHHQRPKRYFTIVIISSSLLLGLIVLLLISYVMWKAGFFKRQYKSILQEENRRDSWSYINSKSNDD
# Sequence of Jurkat E6.1 cells (P05556 21-798): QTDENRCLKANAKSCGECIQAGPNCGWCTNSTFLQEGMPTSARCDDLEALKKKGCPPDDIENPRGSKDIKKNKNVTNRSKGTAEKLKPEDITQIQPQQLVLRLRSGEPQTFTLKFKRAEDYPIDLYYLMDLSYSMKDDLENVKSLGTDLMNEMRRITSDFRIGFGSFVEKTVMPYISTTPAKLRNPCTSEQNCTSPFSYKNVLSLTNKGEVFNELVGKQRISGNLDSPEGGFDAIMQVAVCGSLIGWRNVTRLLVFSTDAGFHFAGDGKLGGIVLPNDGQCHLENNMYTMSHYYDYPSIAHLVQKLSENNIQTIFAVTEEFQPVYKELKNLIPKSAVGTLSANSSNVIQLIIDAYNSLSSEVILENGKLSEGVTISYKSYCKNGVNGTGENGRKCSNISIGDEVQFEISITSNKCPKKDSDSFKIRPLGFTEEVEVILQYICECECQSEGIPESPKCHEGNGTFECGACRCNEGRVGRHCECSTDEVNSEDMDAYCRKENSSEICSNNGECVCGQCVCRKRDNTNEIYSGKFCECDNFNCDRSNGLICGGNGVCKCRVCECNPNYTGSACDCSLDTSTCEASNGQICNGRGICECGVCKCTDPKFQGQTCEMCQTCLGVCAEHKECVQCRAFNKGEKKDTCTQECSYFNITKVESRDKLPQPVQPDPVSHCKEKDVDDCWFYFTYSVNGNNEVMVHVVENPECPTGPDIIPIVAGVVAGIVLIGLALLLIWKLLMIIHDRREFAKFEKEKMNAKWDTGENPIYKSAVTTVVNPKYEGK
# T1 sequence (P13612 34-977 limits assumed): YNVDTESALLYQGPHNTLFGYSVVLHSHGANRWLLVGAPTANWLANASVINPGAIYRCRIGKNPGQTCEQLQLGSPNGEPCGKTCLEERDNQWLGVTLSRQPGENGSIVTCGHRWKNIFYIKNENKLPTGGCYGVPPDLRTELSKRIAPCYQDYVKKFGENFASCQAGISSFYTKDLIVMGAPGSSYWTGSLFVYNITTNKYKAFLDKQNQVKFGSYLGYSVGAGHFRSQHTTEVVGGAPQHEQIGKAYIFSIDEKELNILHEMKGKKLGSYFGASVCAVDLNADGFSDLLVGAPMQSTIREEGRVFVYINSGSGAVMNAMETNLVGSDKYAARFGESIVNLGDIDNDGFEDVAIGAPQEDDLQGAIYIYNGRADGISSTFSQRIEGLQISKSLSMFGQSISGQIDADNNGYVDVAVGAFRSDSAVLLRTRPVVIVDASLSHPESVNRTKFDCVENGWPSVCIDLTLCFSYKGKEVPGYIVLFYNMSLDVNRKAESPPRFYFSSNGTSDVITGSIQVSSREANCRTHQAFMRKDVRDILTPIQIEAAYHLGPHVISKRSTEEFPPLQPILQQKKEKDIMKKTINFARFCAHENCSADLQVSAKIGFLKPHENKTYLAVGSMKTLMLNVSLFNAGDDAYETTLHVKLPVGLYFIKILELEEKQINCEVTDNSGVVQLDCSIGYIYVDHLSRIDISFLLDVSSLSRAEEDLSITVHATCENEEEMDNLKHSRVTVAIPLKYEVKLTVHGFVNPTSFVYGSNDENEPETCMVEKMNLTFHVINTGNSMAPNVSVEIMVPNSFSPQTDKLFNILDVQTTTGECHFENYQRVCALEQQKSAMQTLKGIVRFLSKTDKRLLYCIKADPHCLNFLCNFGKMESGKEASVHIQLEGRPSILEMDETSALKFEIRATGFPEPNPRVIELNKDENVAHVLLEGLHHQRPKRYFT
# T1 sequence (P05556 21-728 limits assumed): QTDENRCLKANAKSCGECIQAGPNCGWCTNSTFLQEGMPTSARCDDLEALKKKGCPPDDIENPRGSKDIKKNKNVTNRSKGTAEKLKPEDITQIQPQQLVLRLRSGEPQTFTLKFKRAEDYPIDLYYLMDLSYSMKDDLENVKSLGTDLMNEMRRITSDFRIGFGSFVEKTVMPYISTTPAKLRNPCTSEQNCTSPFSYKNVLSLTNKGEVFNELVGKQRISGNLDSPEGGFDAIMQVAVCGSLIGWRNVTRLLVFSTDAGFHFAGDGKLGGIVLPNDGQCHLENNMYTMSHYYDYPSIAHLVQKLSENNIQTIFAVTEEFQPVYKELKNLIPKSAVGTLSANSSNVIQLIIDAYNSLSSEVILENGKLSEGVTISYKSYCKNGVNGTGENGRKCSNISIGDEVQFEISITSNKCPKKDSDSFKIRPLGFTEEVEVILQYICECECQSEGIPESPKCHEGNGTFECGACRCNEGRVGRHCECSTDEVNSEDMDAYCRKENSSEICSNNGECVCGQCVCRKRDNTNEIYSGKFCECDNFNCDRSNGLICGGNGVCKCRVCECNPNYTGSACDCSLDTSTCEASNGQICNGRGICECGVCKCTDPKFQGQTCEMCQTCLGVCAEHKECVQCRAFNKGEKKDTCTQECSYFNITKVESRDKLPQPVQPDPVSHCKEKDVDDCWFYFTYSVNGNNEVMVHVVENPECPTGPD
half-life ([1]; simulated gi fluid),Compound,IC50 (Jurkat E6.1 cells),half-life ([1]; pig),IC50 (α4β1),half-life at 22 μM ([1]; pig),"SIF (Porcine) (half-life, min) [1]"
–,"CC(C)C[C@@H]1NC(=O)[C@H]([C@@H](C)O)NC(=O)[C@H](CC(=O)O)NC(=O)[C@H](CO)NC(=O)[C@H](CCCNC(=N)N)N(C)C(=O)c2ccccc2CSC(C)(C)[C@@H](C(=O)N[C@@H](Cc2c[nH]c3ccccc23)C(=O)N[C@H](CCC(=O)O)C(=O)N[C@H](CCCCNC(=O)COCC(=O)NCCCC[C@@H](NC(=O)[C@@H](CCC(=O)O)NC(=O)[C@H](Cc2c[nH]c3ccccc23)NC(=O)[C@H]2NC(=O)[C@H](CC(C)C)NC(=O)[C@H]([C@@H](C)O)NC(=O)[C@H](CC(=O)O)NC(=O)[C@H](CO)NC(=O)[C@H](CCCNC(=N)N)N(C)C(=O)c3ccccc3CSC2(C)C)C(=O)O)C(=O)O)NC1=O [compound 209] (I: [NMeR]SDTL[Pen]W[dE][dK]-OH / II: [NMeR]SDTL[Pen]W[dE][dK]-OH; linker I:9-II:9 via Diglycolyl; linker I:N-I:6, II:N-II:6 via X1)",> 100 µM,> 180 min,100 to 1000 nM,–,–
< 20 min,"CC(C)C[C@@H]1NC(=O)[C@H]([C@@H](C)O)NC(=O)[C@H](CC(=O)O)NC(=O)[C@H](CO)NC(=O)[C@H](CCCNC(=N)N)N(C)C(=O)c2ccccc2CSC(C)(C)[C@@H](C(=O)N[C@@H](Cc2cccc3ccccc23)C(=O)N[C@@H](CCC(=O)O)C(=O)N[C@H](CCCCNC(=O)COCC(=O)NCCCC[C@@H](NC(=O)[C@H](CCC(=O)O)NC(=O)[C@H](Cc2cccc3ccccc23)NC(=O)[C@H]2NC(=O)[C@H](CC(C)C)NC(=O)[C@H]([C@@H](C)O)NC(=O)[C@H](CC(=O)O)NC(=O)[C@H](CO)NC(=O)[C@H](CCCNC(=N)N)N(C)C(=O)c3ccccc3CSC2(C)C)C(N)=O)C(N)=O)NC1=O [compound 167] (I: [NMeR]SDTL[Pen][1Nal]E[dK]-NH2 / II: [NMeR]SDTL[Pen][1Nal]E[dK]-NH2; linker I:9-II:9 via Diglycolyl; linker I:N-I:6, II:N-II:6 via X1)",> 100 µM,–,25 to 100 nM,–,–
–,"CC(C)C[C@@H]1NC(=O)[C@H]([C@@H](C)O)NC(=O)[C@H](CC(=O)O)NC(=O)[C@H](CO)NC(=O)[C@H](CCCNC(=N)N)N(C)C(=O)c2ccccc2CSC[C@@H](C(=O)N2Cc3ccccc3C[C@H]2C(=O)N[C@H](CCC(=O)O)C(=O)N[C@H](CCCCNC(=O)COCC(=O)NCCCC[C@@H](NC(=O)[C@@H](CCC(=O)O)NC(=O)[C@@H]2Cc3ccccc3CN2C(=O)[C@@H]2CSCc3ccccc3C(=O)N(C)[C@@H](CCCNC(=N)N)C(=O)N[C@@H](CO)C(=O)N[C@@H](CC(=O)O)C(=O)N[C@@H]([C@@H](C)O)C(=O)N[C@@H](CC(C)C)C(=O)N2)C(N)=O)C(N)=O)NC1=O [compound 184] (I: [NMeR]SDTLC[Tic][dE][dK]-NH2 / II: [NMeR]SDTLC[Tic][dE][dK]-NH2; linker I:9-II:9 via Diglycolyl; linker I:N-I:6, II:N-II:6 via X1)",> 100 µM,–,100 to 1000 nM,> 180 min,>180 min
–,"CC(C)C[C@@H]1NC(=O)[C@H]([C@@H](C)O)NC(=O)[C@H](CC(=O)O)NC(=O)[C@H](CO)NC(=O)[C@H](CCCNC(=N)N)N(C)C(=O)c2ccccc2CSC[C@@H](C(=O)N2Cc3ccccc3C[C@H]2C(=O)N[C@H](CCC(=O)O)C(=O)N[C@H](CCCCNC(=O)COCC(=O)NCCCC[C@@H](NC(=O)[C@@H](CCC(=O)O)NC(=O)[C@@H]2Cc3ccccc3CN2C(=O)[C@@H]2CSCc3ccccc3C(=O)N(C)[C@@H](CCCNC(=N)N)C(=O)N[C@@H](CO)C(=O)N[C@@H](CC(=O)O)C(=O)N[C@@H]([C@@H](C)O)C(=O)N[C@@H](CC(C)C)C(=O)N2)C(=O)O)C(=O)O)NC1=O [compound 207] (I: [NMeR]SDTLC[Tic][dE][dK]-OH / II: [NMeR]SDTLC[Tic][dE][dK]-OH; linker I:9-II:9 via Diglycolyl; linker I:N-I:6, II:N-II:6 via X1)",> 100 µM,> 180 min,100 to 1000 nM,–,–
–,"CC(C)C[C@@H]1NC(=O)[C@H]([C@@H](C)O)NC(=O)[C@H](CC(=O)O)NC(=O)[C@H](CO)NC(=O)[C@H](CCCNC(=N)N)N(C)C(=O)c2ccccc2CSC(C)(C)[C@@H](C(=O)N[C@@H](Cc2ccc(-c3ccccc3)cc2)C(=O)N[C@H](CCC(=O)O)C(=O)N[C@H](CCCCN)C(N)=O)NC1=O [compound 178] (HELM PEPTIDE1{[meR].S.D.T.L.[Pen].[O=C([C@H](Cc1ccc(-c2ccccc2)cc1)N[*:1])[*:2]].[dE].[dK].[am]}|CHEM1{[O=C(c1ccccc1C[*:2])[*:1]]}$PEPTIDE1,CHEM1,1:R1-1:R1|PEPTIDE1,CHEM1,6:R3-1:R2$$$V2.0)",> 1 µM,–,100 to 1000 nM,> 180 min,">180 (266), min and >180 min"
